The IC50 is the concentration needed to halve the response being measured.

One assay relates to AChE. Conditions: at 200 μM; cited from earlier work.
Another assay has as its system BChE. Conditions: at 200 μM; cited from earlier work.
For assay [1], the target named is human serum acetylcholinesterase (Homo sapiens, UniProt P22303). Nature of the assay: biochemical.
Sequence of human serum acetylcholinesterase (P22303 32-574 limits assumed): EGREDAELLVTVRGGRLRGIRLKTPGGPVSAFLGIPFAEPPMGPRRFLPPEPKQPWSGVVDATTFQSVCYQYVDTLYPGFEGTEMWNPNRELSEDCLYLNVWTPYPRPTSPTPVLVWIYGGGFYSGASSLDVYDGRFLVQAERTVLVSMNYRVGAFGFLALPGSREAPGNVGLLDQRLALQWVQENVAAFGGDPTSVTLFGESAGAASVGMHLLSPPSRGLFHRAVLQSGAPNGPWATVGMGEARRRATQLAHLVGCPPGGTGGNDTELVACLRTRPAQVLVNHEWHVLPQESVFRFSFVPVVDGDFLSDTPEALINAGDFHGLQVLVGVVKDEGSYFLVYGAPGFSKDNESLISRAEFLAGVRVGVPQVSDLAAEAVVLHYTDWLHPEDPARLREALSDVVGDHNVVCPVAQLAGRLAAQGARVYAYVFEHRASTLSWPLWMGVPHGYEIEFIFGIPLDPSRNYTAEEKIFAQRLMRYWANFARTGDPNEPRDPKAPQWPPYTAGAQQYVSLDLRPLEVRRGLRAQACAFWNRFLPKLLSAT

As for `COc1ccc2c3c1O[C@H]1C[C@@H](O)C=C[C@@]31CCN(C)C2` [Galantamine], the “percentage inhibition, AChE” value in the assay with AChE is 78.76 ± 0.94%. In addition, the “percentage inhibition, BChE” value in the assay on BChE is recorded as 79.72 ± 0.33%.
In assay [1], `COc1c(OC)c(OC)c2c(-c3ccccc3)c(-c3ccccc3)[nH]c2c1CNc1ccc([N+](=O)[O-])cc1` [indole amine 25, 4,5,6-Trimethoxy-7-(4′-nitrophenylaminomethyl)-2,3-diphenyl-(1H)-indole] registered an IC50 of 4.28 µM.
As to `COc1c(OC)c(OC)c2c(-c3ccccc3)c(-c3ccccc3)[nH]c2c1CNc1cccc([N+](=O)[O-])c1` [indole amine 24, 4,5,6-Trimethoxy-7-(3′-nitrophenylaminomethyl)-2,3-diphenyl-(1H)-indole], in assay [1], the IC50 turned out to be 4.66 µM.
For the compound `COc1c(OC)c(OC)c2c(-c3ccccc3)c(-c3ccccc3)[nH]c2c1CNc1ccccc1` [indole amine 23, 4,5,6-Trimethoxy-2,3-diphenyl-7-phenylaminomethyl-(1H)-indole], the half-inhibitory concentration (IC50) in assay [1] is 12.1 µM.

The values are drawn from publication PMC9811652 (RSC Advances, 2023).
